Measurements from patent US10688077B2, “Inflammasome activation in myelodysplastic syndromes” (H. Lee Moffitt Cancer Center and Research Institute, Inc., priority 2015, dated 2020).

Experiments:
[1] = tested on: SF3B1-K700E-expressing mutant BM cells; assay: ROS detection by flow cytometry, SF3B1-K700E BM cells; assay type: cell-based, mice
From the text: (§1) ROS were detected using CM-H2DCFDA and CellROX® Deep Red Reagent according to manufacturer's protocol (Life Technologies).

[2] = tested on: U2AF1 S34F mutant expressing TF-1 cells; assay: Nuclear β-catenin confocal microscopy in U2AF1-S34F mutant cells; assay type: cell-based; conditions: treated 24 hours prior to staining
[3] = tested on: SF3B1-K700E mutant-expressing BM cells; assay: Nuclear β-catenin confocal microscopy, SF3B1-K700E BM cells; assay type: cell-based, mice; conditions: treated 24 hours
Description: (§2) MDS and normal donor BM-MNC and mouse BM cells were stained with 30×FAM-FLICA® Caspase-1 solution at a ratio of 1:30 for 2 hours at 37° C. Cells were washed and cytospins were generated using a 5 minutes centrifugation at 450 rpm. Slides were fixed at 37° C. for 10 minutes using BD Cytofix Fixation Buffer (BD Biosciences), and subsequently washed using PBS. Cells were permeabilized with 0.1% Triton X-100/2% BSA in PBS for 15 minutes at room temperature. After washing with PBS, cells were blocked using 2% BSA in PBS for 30 minutes at room temperature, and washed again. Cells were incubated with the appropriate primary antibody overnight (1:400 for NLRP3, 1:20 for β-catenin) at 4° C. The next day, cells were washed with PBS and incubated with the appropriate secondary antibodies (1:500) for 1 hour at room temperature. After washing, cells were covered with ProLong Gold Antifade Reagent with DAPI prior to the addition of a coverslip (Life Technologies). Co-localization of a-caspase-1 with NLRP3 inflammasome complexes was assessed using a Leica TCS SP5 AOBS Laser Scanning Confocal microscope (Leica Microsystems). Analysis of the inflammasome images was performed with Definiens Developer 2.0 (Definiens AG). The software was used to segment cells based on brightness and size thresholds, followed by a watershed segmentation algorithm. […]

[4] = tested on: SF3B1-K700E mutant-expressing BM cells; assay: ASC staining to detect inflammasome formation by flow cytometry, SF3B1-K700E BM cells; assay type: cell-based, mice; conditions: treated 24 hours
Description: Staining was carried out as described ([…], et al. J Immunol. 2015 194(1):455-62). Briefly, cell pellets were resuspended in 1 mL of prewarmed BD Permeabilization Buffer III, and incubated on ice for 30 minutes. Cells were washed 2× with staining buffer. Following washing, cells were stained with rabbit-anti-ASC primary antibodies at a 1:1500 dilution and incubated for 90 minutes. Cells were washed, stained with secondary antibodies at a dilution of 1:1500, and incubated for 45 minutes. Cells were washed, and sample acquisitions were carried out using a BD LSR II flow cytometer and FACSDiva software.

[5] = tested on: U937 cells; assay: NLRP3 inflammasome confocal microscopy in U937 cells; assay type: cell-based; conditions: 5 μg/mL, 24 hours
[6] = tested on: U937 cells; assay: ROS detection by flow cytometry in U937 cells; assay type: cell-based; conditions: 5 μg/mL, 24 hours, compared to untreated cells
From the text: as §1

[7] = tested on: normal BM-MNC; assay: qPCR of pyroptosis-associated genes in normal BM-MNC treated with rhS100A9; assay type: cell-based, human; conditions: 1 μg/mL, 24 hours, n=2
Description: PCR RNA was isolated from BM-MNC using the RNeasy Mini Kit (Qiagen). cDNA was produced using the iScript cDNA Synthesis Kit (Bio-Rad). Sequences for primers can be found in Table 1. GAPDH mRNA was used for transcript normalization. cDNA was amplified using the iQ SYBR Green Supermix and the CFX96 Real-Time PCR Detection System (Bio-Rad). PCR conditions were as follows: 10 minutes at 95° C., followed by 40 cycles of amplification (15 seconds at 95° C. and 1 minute at 60° C.). Relative gene expression was calculated using the […] method.

[8] = tested on: U937 cells; assay: S100A9 flow cytometry experiments in U937 cells (a-caspase-1/annexin-V); assay type: cell-based
Description: Monocytic U937 cells were treated with the indicated concentrations of rhS100A9 for 24 hours, or with 5 μg/mL rhS100A9 for the indicated time points. Subsequently, cells were stained with 30×FAM-FLICA® Caspase-1 solution at a ratio of 1:30 for 2 hours at 37° C. Cells were washed, resuspended in 1× binding buffer, and stained with Annexin-V:PE at a dilution of 1:30 for 15 minutes at room temperature. 1× binding buffer was added to a final volume of 350 μL. Sample acquisitions were carried out using a BD FACSCalibur flow cytometer (BD Biosciences). Data were analyzed using FlowJo 9.7.5 software.

[9] = tested on: U937 cells; assay: Pore formation, ethidium bromide uptake in U937 cells; assay type: cell-based; conditions: 5 μg/mL rhS100A9, 12.5 μg/mL ethidium bromide
[10] = tested on: U937 cells; assay: Nuclear β-catenin confocal microscopy in U937 cells; assay type: cell-based; conditions: 5 μg/mL, 24 hours, compared to untreated cells
[11] = tested on: normal BM-MNC; assay: Nuclear β-catenin confocal microscopy in normal BM-MNC; assay type: cell-based, human
Description: as §2

[12] = tested on: U937 cells; assay: Comet assay (DNA damage) in U937 cells; assay type: cell-based; conditions: 5 μg/mL, 24 hours, compared to untreated cells
Description: Monocytic U937 cells were treated with 5 μg/mL rhS100A9 for 24 hr.
DNA damage was measured by single cell gel electrophoresis using alkaline CometAssay® according to manufacturer's protocol (Trevigen Inc.).

[13] = tested on: BM cells isolated from WT mice; assay: a-caspase-1/NLRP3 confocal microscopy in WT mouse BM cells treated with rhS100A9; assay type: cell-based; conditions: 5 μg/mL, 24 hours
Description: (§3) MDS and normal donor BM-MNC and mouse BM cells were stained with 30×FAM-FLICA® Caspase-1 solution at a ratio of 1:30 for 2 hours at 37° C. Cells were washed and cytospins were generated using a 5 minutes centrifugation at 450 rpm. Slides were fixed at 37° C. for 10 minutes using BD Cytofix Fixation Buffer (BD Biosciences), and subsequently washed using PBS. Cells were permeabilized with 0.1% Triton X-100/2% BSA in PBS for 15 minutes at room temperature. After washing with PBS, cells were blocked using 2% BSA in PBS for 30 minutes at room temperature, and washed again. Cells were incubated with the appropriate primary antibody overnight (1:400 for NLRP3, 1:20 for β-catenin) at 4° C. The next day, cells were washed with PBS and incubated with the appropriate secondary antibodies (1:500) for 1 hour at room temperature. After washing, cells were covered with ProLong Gold Antifade Reagent with DAPI prior to the addition of a coverslip (Life Technologies). Co-localization of a-caspase-1 with NLRP3 inflammasome complexes was assessed using a Leica TCS SP5 AOBS Laser Scanning Confocal microscope (Leica Microsystems). Analysis of the inflammasome images was performed with Definiens Developer 2.0 (Definiens AG). The software was used to segment cells based on brightness and size thresholds, followed by a watershed segmentation algorithm. Intensity values and Pearson's correlation coefficient were extracted from the segmented cells. For β-catenin image analysis, confocal images were imported into Definiens Tissue Studio v3.0, 64 Dual in .tif format. Cells were separated from background using the RGB thresholds. Nuclei were identified by setting thresholds in the DAPI channel. Typical cells averaged 60 microns. The red intensity (β-catenin) in the nucleus and cytoplasm was established by setting thresholds to low, medium and high in the red channel on a scale of 0-255 in the red channel.

[14] = tested on: normal BM-MNC; assay: a-caspase-1/NLRP3 confocal microscopy in normal BM-MNC treated with rhS100A9; assay type: cell-based, human; conditions: 5 pig/mL rhS100A9, 24 hours
Description: as §3

c1ccc2c(c1)[I+]c1ccccc1-2 [DPI]
ROS MFI [1]: extinguished below the level of WT controls | mean percentage of ROS+ cells [1]: extinguished below the level of WT controls | β-catenin activation (nuclear β-catenin) [2]: effectively reduced β-catenin activation | percentage of cells with elevated levels of nuclear β-catenin [3]: significantly reduced | inflammasome formation (ASC oligomerization) [4]: significantly reduced

rhS100A9: recombinant human S100A9, DAMP/alarmin protein, TLR4 and CD33 ligand
levels of NLRP3 inflammasome complexes [5]: markedly increased | increase in the mean percentage of ROS-positive cells [6]: 2.9 fold | expression of pyroptosis-associated genes [7]: significantly up-regulated | activation of caspase-1 ([8]; 5 μg/mL, over time): time-dependent increase | fraction of pyroptotic cells ([8]; increasing concentrations, 24 hours): concentration-dependent increase | uptake of ethidium bromide [9]: rapid and substantial uptake | levels of nuclear (activated) β-catenin [10]: marked increases | levels of nuclear β-catenin ([11]; 5 μg/mL, 24 hours, compared to controls): elevated levels | increase in DNA damage [12]: 4.1 fold | inflammasome complexes ([13]; p=0.023): marked induction | MFI of NLRP3 ([13]; versus controls, p=0.017): significantly increased | MFI of a-caspase-1 ([13]; versus controls, p=7.5×10^−3): significantly increased | a-caspase-1 levels induced [14]: 2.5 fold | formation of NLRP3 inflammasomes induced [14]: 2.9 fold | NLRP3 levels induced ([14]; p=0.064): 47.1 fold

CC(=O)N[C@@H](CS)C(=O)O [NAC, N-acetylcysteine]
ROS MFI [1]: extinguished below the level of WT controls | mean percentage of ROS+ cells [1]: extinguished below the level of WT controls | β-catenin activation (nuclear β-catenin) [2]: effectively reduced β-catenin activation | percentage of cells with elevated levels of nuclear β-catenin [3]: significantly reduced | S100A9-triggered nuclear translocation of β-catenin ([11]; S100A9 treated normal BM-MNC): abolished | inflammasome formation (ASC oligomerization) [4]: significantly reduced
